Laboratory results: US20230097157A1, “Bicyclic Pyridin-2-one and pyrimidin-4-one Derivatives Useful As a Factor XIa Inhibitors” (Janssen Pharmaceutica NV, priority 2021, published 2023)
Like-named read-outs stand apart in the source and are kept apart here.

Key:
[1] = biological target: human plasma kallikrein (Homo sapiens, UniProt P03952); assay: Kallikrein inhibition assay (FLINT) utilizing a quenched AMC peptide substrate Z-Gly-Pro-Arg-AMC; assay type: biochemical; conditions: kinetic (KIN) reads, read-out: Kallikrein KIN Inh IC50
In short: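 Human plasma kallikrein (2 nM final) pre-incubated 30 min with compound (11-point 3-fold series, top 1 μM, 2% DMSO), then 50 μM Z-Gly-Pro-Arg-AMC added. Buffer 50 mM Tris pH 7.5, 100 mM NaCl, 5 mM CaCl2, BSA, CHAPS. AMC fluorescence (340/440 nm) read kinetically over 30 min at room temperature, IC50 by 4-parameter logistic fit.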

[2] = biological target: Factor XIa (Homo sapiens, UniProt P03951); assay: Factor XIa inhibition assay (FLINT) utilizing a fluorophore-quencher pair peptide substrate 5Fam-[…]-K5Tamra; assay type: biochemical; conditions: kinetic (KIN) reads, read-out: FXIa KIN Inh IC50
In short: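 FXIa was preincubated with compound for 30 min at room temperature in Tris pH 7.5 buffer containing CaCl2, BSA and CHAPS, then reacted with 15 μM quenched 5Fam/Tamra peptide substrate. Fluorescence (485/520 nm) was read kinetically every 5 min for 30 min.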

human plasma kallikrein, sequence (P03952 391-638 limits assumed): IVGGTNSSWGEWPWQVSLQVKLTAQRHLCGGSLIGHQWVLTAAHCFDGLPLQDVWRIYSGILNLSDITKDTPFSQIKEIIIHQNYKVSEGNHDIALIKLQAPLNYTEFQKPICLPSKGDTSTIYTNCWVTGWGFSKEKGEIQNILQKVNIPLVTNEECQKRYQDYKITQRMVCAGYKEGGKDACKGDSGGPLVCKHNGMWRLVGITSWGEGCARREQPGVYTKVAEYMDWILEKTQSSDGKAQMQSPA
human plasma kallikrein, sequence (P03952 20-390 partner limits assumed): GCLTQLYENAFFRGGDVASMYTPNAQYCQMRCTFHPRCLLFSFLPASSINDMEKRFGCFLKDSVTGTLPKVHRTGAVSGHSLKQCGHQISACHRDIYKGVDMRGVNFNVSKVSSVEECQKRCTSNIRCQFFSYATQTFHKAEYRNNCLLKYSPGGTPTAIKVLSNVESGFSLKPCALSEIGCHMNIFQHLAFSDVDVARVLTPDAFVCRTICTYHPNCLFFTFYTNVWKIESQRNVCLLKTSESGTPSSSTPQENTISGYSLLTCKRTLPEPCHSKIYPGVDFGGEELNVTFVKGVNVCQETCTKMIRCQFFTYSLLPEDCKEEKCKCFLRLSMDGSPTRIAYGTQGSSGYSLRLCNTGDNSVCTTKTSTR
Factor XIa, sequence (P03951 388-625 limits assumed): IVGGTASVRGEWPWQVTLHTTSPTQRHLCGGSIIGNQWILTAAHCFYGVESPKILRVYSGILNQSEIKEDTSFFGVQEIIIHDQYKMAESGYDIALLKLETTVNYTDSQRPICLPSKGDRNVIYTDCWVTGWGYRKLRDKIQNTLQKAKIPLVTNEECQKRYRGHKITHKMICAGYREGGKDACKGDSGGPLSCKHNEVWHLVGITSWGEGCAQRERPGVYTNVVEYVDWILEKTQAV
Factor XIa, sequence (P03951 19-387 partner limits assumed): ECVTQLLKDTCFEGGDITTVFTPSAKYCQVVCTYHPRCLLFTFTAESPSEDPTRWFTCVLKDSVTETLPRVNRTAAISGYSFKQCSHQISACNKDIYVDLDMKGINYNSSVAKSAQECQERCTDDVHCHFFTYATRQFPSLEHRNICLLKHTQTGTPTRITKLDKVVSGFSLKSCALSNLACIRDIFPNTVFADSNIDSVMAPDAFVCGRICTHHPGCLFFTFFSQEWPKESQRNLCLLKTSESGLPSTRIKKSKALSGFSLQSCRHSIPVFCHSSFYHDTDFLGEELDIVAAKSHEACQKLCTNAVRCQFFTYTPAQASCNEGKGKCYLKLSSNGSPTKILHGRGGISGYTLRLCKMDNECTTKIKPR

SMILES | IC50 ([1]; values in nM) | IC50 ([2]; values in nM) | IC50 ([1]; unit μM) | IC50 ([2]; unit μM)
C[C@H]1C[C@@H](c2ncc(-c3ccnc(C(F)(F)F)c3)[nH]2)n2c1nc(-c1c(-n3cnnn3)ccc(Cl)c1F)cc2=O (relative stereo) [Example 148, (6S*,8S*)-2-(3-Chloro-2-fluoro-6-(1H-tetrazol-1-yl)phenyl)-8-methyl-6-(5-(2-(trifluoromethyl)pyridin-4-yl)-1H-imidazol-2-yl)-7,8-dihydropyrrolo[1,2-a]pyrimidin-4(6H)-one] | 94 nM | 47.6 nM |  | 
COc1cc(-c2cnc([C@@H]3C[C@@H](C)c4nc(-c5c(-n6cnnn6)ccc(Cl)c5F)cc(=O)n43)[nH]2)ccn1 (stereo in doubt) [Example 98, (6*S,8*R)-2-(3-Chloro-2-fluoro-6-(1H-tetrazol-1-yl)phenyl)-6-(5-(2-methoxypyridin-4-yl)-1H-imidazol-2-yl)-8-methyl-7,8-dihydropyrrolo[1,2-a]pyrimidin-4(6H)-one] | 135 nM | 143 nM |  | 
Cc1nc(N)sc1-c1cnc([C@@H]2C[C@H](C)c3cc(-c4c(-n5cnnn5)ccc(Cl)c4F)cc(=O)n32)[nH]1 [Example 26, (1S,3S)-3-(5-(2-Amino-4-methylthiazol-5-yl)-1H-imidazol-2-yl)-7-(3-chloro-2-fluoro-6-(1H-tetrazol-1-yl)phenyl)-1-methyl-2,3-dihydroindolizin-5(1H)-one] |  | 22.6 nM | 1300 nM | 
Cc1nc(N)cnc1-c1cnc([C@H]2CC(C)c3nc(-c4c(-n5cnnn5)ccc(Cl)c4F)cc(=O)n32)[nH]1 (stereo partly drawn) [Example 96, (6R)-6-(5-(5-Amino-3-methylpyrazin-2-yl)-1H-imidazol-2-yl)-2-(3-chloro-2-fluoro-6-(1H-tetrazol-1-yl)phenyl)-8-methyl-7,8-dihydropyrrolo[1,2-a]pyrimidin-4(6H)-one] |  | > 100 nM | > 1000 nM | 
CC1CC(c2ncc(-c3ccnc(CO)c3F)[nH]2)n2c1nc(-c1c(-n3cnnn3)ccc(Cl)c1F)cc2=O (single isomer, unassigned) [Example 78, (6R*)-2-(3-Chloro-2-fluoro-6-(1H-tetrazol-1-yl)phenyl)-6-(5-(3-fluoro-2-(hydroxymethyl)pyridin-4-yl)-1H-imidazol-2-yl)-8-methyl-7,8-dihydropyrrolo[1,2-a]pyrimidin-4(6H)-one] | 463 nM | > 100 nM |  | 
C[C@H]1C[C@@H](c2ncc(-c3ccc4c(=O)cc[nH]c4c3)[nH]2)n2c1nc(-c1c(-n3cnnn3)ccc(Cl)c1F)cc2=O (relative stereo) [Example 102, 7-(2-((6*S,8*S)-2-(3-Chloro-2-fluoro-6-(1H-tetrazol-1-yl)phenyl)-8-methyl-4-oxo-4,6,7,8-tetrahydropyrrolo[1,2-a]pyrimidin-6-yl)-1H-imidazol-5-yl)quinolin-4(1H)-one] | 446 nM | 18.2 nM |  | 
C[C@H]1C[C@H](c2ncc(-c3cnns3)[nH]2)n2c1nc(-c1c(-n3cnnn3)ccc(Cl)c1F)cc2=O (relative stereo) [Example 106, (6*R,8*S)-6-(5-(1,2,3-Thiadiazol-5-yl)-1H-imidazol-2-yl)-2-(3-chloro-2-fluoro-6-(1H-tetrazol-1-yl)phenyl)-8-methyl-7,8-dihydropyrrolo[1,2-a]pyrimidin-4(6H)-one] |  | 933 nM | 6400 nM | 
CC1C[C@H](c2nc(-c3cnc(N)cn3)c[nH]2)n2c1nc(-c1c(-n3cc(C(F)(F)F)nn3)ccc(Cl)c1F)cc2=O (stereo partly drawn) [Example 79, (6R)-6-(4-(5-aminopyrazin-2-yl)-1H-imidazol-2-yl)-2-(3-chloro-2-fluoro-6-(4-(trifluoromethyl)-1H-1,2,3-triazol-1-yl)phenyl)-8-methyl-7,8-dihydropyrrolo[1,2-a]pyrimidin-4(6H)-one] | 324 nM | 63.5 nM |  | 
C[C@@H]1C[C@H](c2ncc(-c3ccnc(F)c3)[nH]2)n2c1cc(-c1c(-n3cnnn3)ccc(Cl)c1F)cc2=O (stereo in doubt) [Example 43, (1*R,3*R)-7-(3-Chloro-2-fluoro-6-(1H-tetrazol-1-yl)phenyl)-3-(5-(2-fluoropyridin-4-yl)-1H-imidazol-2-yl)-1-methyl-2,3-dihydroindolizin-5(1H)-one] | 108 nM | 12.4 nM |  | 
CNC(=O)c1cc(-c2cnc([C@@H]3C[C@H](C)c4cc(-c5c(-n6cnnn6)ccc(Cl)c5F)cc(=O)n43)[nH]2)ccn1 [Example 13, 4-(2-((1S,3S)-7-(3-Chloro-2-fluoro-6-(1H-tetrazol-1-yl)phenyl)-1-methyl-5-oxo-1,2,3,5-tetrahydroindolizin-3-yl)-1H-imidazol-5-yl)-N-methylpicolinamide] | 36.9 nM | 12.7 nM |  | 
C[C@H]1C[C@@H](c2ncc(-c3ccc(N)nc3Cl)[nH]2)n2c1nc(-c1c(-n3cnnn3)ccc(Cl)c1F)cc2=O (single isomer, unassigned) [Example 140] |  | ~575 nM | 9100 nM | 
C[C@H]1C[C@@H](c2ncc(-c3cc4c(cn3)NC(=O)CC4)[nH]2)n2c1cc(-c1c(-n3cnnn3)ccc(Cl)c1F)cc2=O (single isomer, unassigned) [Example 92, 6-(2-((1S*,3S*)-7-(3-Chloro-2-fluoro-6-(1H-tetrazol-1-yl)phenyl)-1-methyl-5-oxo-1,2,3,5-tetrahydroindolizin-3-yl)-1H-imidazol-5-yl)-3,4-dihydro-1,7-naphthyridin-2(1H)-one] | 15.6 nM | 8.3 nM |  | 
C[C@@H]1C[C@@H](c2ncc(-c3ccc4c(=O)cc[nH]c4c3)[nH]2)n2c1nc(-c1c(-n3cnnn3)ccc(Cl)c1F)cc2=O (relative stereo) [Example 101, 7-(2-((6S,8R)-2-(3-Chloro-2-fluoro-6-(1H-tetrazol-1-yl)phenyl)-8-methyl-4-oxo-4,6,7,8-tetrahydropyrrolo[1,2-a]pyrimidin-6-yl)-1H-imidazol-5-yl)quinolin-4(1H)-one] |  | 321 nM | 1300 nM | 
Nc1ncc(-c2cnc([C@H]3CC4(CC4)c4cc(-c5c(-n6cnnn6)ccc(Cl)c5F)cc(=O)n43)[nH]2)s1 [Example 17, (R)-3′-(5-(2-Aminothiazol-5-yl)-1H-imidazol-2-yl)-7′-(3-chloro-2-fluoro-6-(1H-tetrazol-1-yl)phenyl)-2′,3′-dihydro-5′H-spiro[cyclopropane-1,1′-indolizin]-5′-one] |  | 890 nM | 9050 nM | 
COc1nccc(-c2cnc([C@@H]3C[C@H](C)c4nc(-c5c(-n6cnnn6)ccc(Cl)c5F)cc(=O)n43)[nH]2)n1 (relative stereo) [Example 103, (6S,8S)-2-(3-chloro-2-fluoro-6-(1H-tetrazol-1-yl)phenyl)-6-(5-(2-methoxypyrimidin-4-yl)-1H-imidazol-2-yl)-8-methyl-7,8-dihydropyrrolo[1,2-a]pyrimidin-4(6H)-one] | 151 nM | 63.4 nM |  | 
COc1nc(N)cnc1-c1cnc([C@@H]2C[C@H](C)c3nc(-c4c(-n5cnnn5)ccc(Cl)c4F)cc(=O)n32)[nH]1 (relative stereo) [Example 84, (6*S,8*S)-6-(5-(5-Amino-3-methoxypyrazin-2-yl)-1H-imidazol-2-yl)-2-(3-chloro-2-fluoro-6-(1H-tetrazol-1-yl)phenyl)-8-methyl-7,8-dihydropyrrolo[1,2-a]pyrimidin-4(6H)-one] | 31.9 nM | 5.7 nM |  | 
C[C@H]1C[C@@H](c2ncc(-c3ccnc(CO)c3F)[nH]2)n2c1cc(-c1c(-n3cnnn3)ccc(Cl)c1F)cc2=O (relative stereo) [Example 2, (1 S*,3S*)-7-(3-Chloro-2-fluoro-6-(1H-tetrazol-1-yl)phenyl)-3-(5-(3-fluoro-2-(hydroxymethyl)pyridin-4-yl)-1H-imidazol-2-yl)-1-methyl-2,3-dihydroindolizin-5(1H)-one] | 170 nM | 22 nM |  | 
C[C@H]1C[C@@H](c2ncc(-c3cnc(F)c(N)c3)[nH]2)n2c1cc(-c1c(-n3cnnn3)ccc(Cl)c1F)cc2=O [Example 21, (1S,3S)-3-(5-(5-Amino-6-fluoropyridin-3-yl)-1H-imidazol-2-yl)-7-(3-chloro-2-fluoro-6-(1H-tetrazol-1-yl)phenyl)-1-methyl-2,3-dihydroindolizin-5(1H)-one] | 340 nM | 64.4 nM |  | 
C[C@@H]1C[C@H](c2ncc(-c3ccc4nccn4c3)[nH]2)n2c1cc(-c1c(-n3cnnn3)ccc(Cl)c1F)cc2=O (stereo in doubt) [Example 49, (1R*,3R*)-7-(3-Chloro-2-fluoro-6-(1H-tetrazol-1-yl)phenyl)-3-(5-(imidazo[1,2-a]pyridin-6-yl)-1H-imidazol-2-yl)-1-methyl-2,3-dihydroindolizin-5(1H)-one] | 44.3 nM | 24.2 nM |  | 
Cc1nc(N)c(F)cc1-c1cnc([C@@H]2C[C@H](C)c3nc(-c4c(-n5cnnn5)ccc(Cl)c4F)cc(=O)n32)[nH]1 (stereo in doubt) [Example 130, (6*S,8*S)-6-(5-(6-Amino-5-fluoro-2-methylpyridin-3-yl)-1H-imidazol-2-yl)-2-(3-chloro-2-fluoro-6-(1H-tetrazol-1-yl)phenyl)-8-methyl-7,8-dihydropyrrolo[1,2-a]pyrimidin-4(6H)-one] |  |  | > 10000 nM | > 10000 nM
C[C@@H]1C[C@@H](c2ncc(-c3ccnn3C)[nH]2)n2c1nc(-c1c(-n3cnnn3)ccc(Cl)c1F)cc2=O (relative stereo) [Example 145, (6S*,8R*)-2-(3-Chloro-2-fluoro-6-(1H-tetrazol-1-yl)phenyl)-8-methyl-6-(5-(1-methyl-1H-pyrazol-5-yl)-1H-imidazol-2-yl)-7,8-dihydropyrrolo[1,2-a]pyrimidin-4(6H)-one] |  |  | > 10000 nM | > 10000 nM
